# Tests used:
# Format in all cases: in vivo
# [1] = tested on: morningglory (Ipomoea spp.); test: Test A pre-/postemergence: morningglory
# In short: (§1)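 Injury is scored visually on a scale where 0 means no effect and 100 complete control, comparing treated with untreated plants after approximately ten greenhouse days. Both preemergence and postemergence applications are made at the same time.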
# [2] = tested on: barnyardgrass (Echinochloa crus-galli); test: Test C flooded paddy test: barnyardgrass; conditions: scale 0 to 100 (0 no effect, 100 complete control)
# In short: (§2)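 Plants were grown to the 2-leaf stage, pots flooded to 3 cm above soil, and test compounds applied directly to the paddy water, with that depth held throughout. After 13 to 15 days in a greenhouse, injury was visually rated against controls on a 0 (no effect) to 100 (complete control) scale.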
# [3] = tested on: crabgrass, large (large crabgrass, Digitaria sanguinalis); test: Test A pre-/postemergence: crabgrass, large
# In short: as §1
# [4] = tested on: foxtail, giant (giant foxtail, Setaria faberii); test: Test A pre-/postemergence: foxtail, giant
# In short: as §1
# [5] = tested on: barnyardgrass (Echinochloa crus-galli); test: Test A pre-/postemergence: barnyardgrass
# In short: as §1
# [6] = tested on: corn (Zea mays); test: Test A pre-/postemergence: corn
# In short: as §1
# [7] = tested on: ducksalad (Heteranthera limosa); test: Test C flooded paddy test: ducksalad; conditions: scale 0 to 100 (0 no effect, 100 complete control)
# In short: as §2
# [8] = tested on: rice (Oryza sativa); test: Test C flooded paddy test: rice; conditions: scale 0 to 100 (0 no effect, 100 complete control)
# In short: as §2
# [9] = tested on: sedge, umbrella (small-flower umbrella sedge, Cyperus difformis); test: Test C flooded paddy test: sedge, umbrella; conditions: scale 0 to 100 (0 no effect, 100 complete control)
# In short: as §2
# [10] = tested on: wheat (Triticum aestivum); test: Test A pre-/postemergence: wheat
# In short: as §1
# [11] = tested on: velvetleaf (Abutilon theophrasti); test: Test A pre-/postemergence: velvetleaf
# In short: as §1
# [12] = tested on: pigweed (Amaranthus retroflexus); test: Test A pre-/postemergence: pigweed
# In short: as §1
# [13] = Postemergence, 125 g ai/ha, 0 to 100 scale, 0 is no effect, 100 is complete control
# [14] = Postemergence, 500 g ai/ha, visual rating on 0 to 100 scale (0 no effect, 100 complete control), approximately ten days
# [15] = Preemergence, 125 g ai/ha, 0 to 100 scale where 0 is no effect and 100 is complete control
# [16] = Preemergence, 500 g ai/ha, 0 to 100 scale (0 no effect, 100 complete control)
# [17] = Flood (flooded paddy test), 125 g ai/ha, visual rating after 13 to 15 days
# [18] = Flood (flooded paddy test), 250 g ai/ha, visual rating after 13 to 15 days
# [19] = Postemergence, 1000 g ai/ha, visual rating on 0 to 100 scale (0 no effect, 100 complete control), approximately ten days
# [20] = Preemergence, 1000 g ai/ha, 0 to 100 scale, 0 is no effect, 100 is complete control
compound,measurement,setting,value
Cc1nn(-c2ccc(F)cc2)nc1Oc1cc(C(F)(F)F)nn1C [Compound 126],Morningglory plant response rating,[1]; [13],70
same,Morningglory plant response rating,[1]; [14],80
same,"Plant response rating, Morningglory",[1]; [15],10
same,"Plant response rating, Morningglory",[1]; [16],30
same,"Plant response rating, Barnyardgrass",[2]; [17],30
same,"Plant response rating, Barnyardgrass",[2]; [18],40
same,"Plant response rating, Barnyardgrass","[2]; Flood, 31 g ai/ha",0
same,"Plant response rating, Barnyardgrass","[2]; Flood, 62 g ai/ha",0
same,"Crabgrass, Large plant response rating",[3]; [13],90
same,"Crabgrass, Large plant response rating",[3]; [14],90
same,"Plant response rating, Crabgrass, Large",[3]; [15],100
same,"Plant response rating, Crabgrass, Large",[3]; [16],100
same,"Foxtail, Giant plant response rating",[4]; [13],60
same,"Foxtail, Giant plant response rating",[4]; [14],90
same,"Plant response rating, Foxtail, Giant",[4]; [15],70
same,"Plant response rating, Foxtail, Giant",[4]; [16],90
same,Barnyardgrass plant response rating,[5]; [13],20
same,Barnyardgrass plant response rating,[5]; [14],70
same,"Plant response rating, Barnyardgrass",[5]; [15],70
same,"Plant response rating, Barnyardgrass",[5]; [16],80
same,Corn plant response rating,[6]; [13],20
same,Corn plant response rating,[6]; [14],30
same,"Plant response rating, Corn",[6]; [15],0
same,"Plant response rating, Corn",[6]; [16],20
same,"Plant response rating, Ducksalad",[7]; [17],20
same,"Plant response rating, Ducksalad",[7]; [18],65
same,"Plant response rating, Ducksalad","[7]; Flood, 31 g ai/ha",0
same,"Plant response rating, Ducksalad","[7]; Flood, 62 g ai/ha",0
same,"Plant response rating, Rice",[8]; [17],10
same,"Plant response rating, Rice",[8]; [18],20
same,"Plant response rating, Rice","[8]; Flood, 31 g ai/ha",0
same,"Plant response rating, Rice","[8]; Flood, 62 g ai/ha",0
same,"Plant response rating, Sedge, Umbrella",[9]; [17],75
same,"Plant response rating, Sedge, Umbrella",[9]; [18],80
same,"Plant response rating, Sedge, Umbrella","[9]; Flood, 31 g ai/ha",30
same,"Plant response rating, Sedge, Umbrella","[9]; Flood, 62 g ai/ha",40
same,Wheat plant response rating,[10]; [13],10
same,Wheat plant response rating,[10]; [14],20
same,"Plant response rating, Wheat",[10]; [15],0
same,"Plant response rating, Wheat",[10]; [16],0
same,Velvetleaf plant response rating,[11]; [13],40
same,Velvetleaf plant response rating,[11]; [14],80
same,"Plant response rating, Velvetleaf",[11]; [15],10
same,"Plant response rating, Velvetleaf",[11]; [16],40
same,Pigweed plant response rating,[12]; [13],100
same,Pigweed plant response rating,[12]; [14],100
same,"Plant response rating, Pigweed",[12]; [15],100
same,"Plant response rating, Pigweed",[12]; [16],100
CCc1nn(-c2ccc(C(F)(F)F)cc2)nc1Cn1cnc(C(F)(F)F)n1 [Compound 130],Morningglory plant response rating,[1]; [19],100
same,Morningglory plant response rating,[1]; [20],40
same,"Plant response rating, Barnyardgrass",[2]; [18],15
same,"Plant response rating, Barnyardgrass","[2]; Flood, 62 g ai/ha",0
same,"Crabgrass, Large plant response rating",[3]; [19],90
same,"Crabgrass, Large plant response rating",[3]; [20],90
same,"Foxtail, Giant plant response rating",[4]; [19],80
same,"Foxtail, Giant plant response rating",[4]; [20],90
same,Barnyardgrass plant response rating,[5]; [19],50
same,Barnyardgrass plant response rating,[5]; [20],50
same,Corn plant response rating,[6]; [19],30
same,Corn plant response rating,[6]; [20],0
same,"Plant response rating, Ducksalad",[7]; [18],20
same,"Plant response rating, Ducksalad","[7]; Flood, 62 g ai/ha",0
same,"Plant response rating, Rice",[8]; [18],15
same,"Plant response rating, Rice","[8]; Flood, 62 g ai/ha",0
same,"Plant response rating, Sedge, Umbrella",[9]; [18],75
same,"Plant response rating, Sedge, Umbrella","[9]; Flood, 62 g ai/ha",30
same,Wheat plant response rating,[10]; [19],30
same,Wheat plant response rating,[10]; [20],10
same,Velvetleaf plant response rating,[11]; [19],100
same,Velvetleaf plant response rating,[11]; [20],20
same,Pigweed plant response rating,[12]; [19],100
same,Pigweed plant response rating,[12]; [20],90
CCc1nn(-c2ccc(C(F)(F)F)cc2)nc1Cn1nc(C(F)(F)F)cc1C [Compound 131],Morningglory plant response rating,[1]; [19],70
same,Morningglory plant response rating,[1]; [20],10
same,"Plant response rating, Barnyardgrass",[2]; [18],10
same,"Plant response rating, Barnyardgrass","[2]; Flood, 62 g ai/ha",0
same,"Crabgrass, Large plant response rating",[3]; [19],90
same,"Crabgrass, Large plant response rating",[3]; [20],90
same,"Foxtail, Giant plant response rating",[4]; [19],50
same,"Foxtail, Giant plant response rating",[4]; [20],90
same,Barnyardgrass plant response rating,[5]; [19],30
same,Barnyardgrass plant response rating,[5]; [20],20
same,Corn plant response rating,[6]; [19],30
same,Corn plant response rating,[6]; [20],0
same,"Plant response rating, Ducksalad",[7]; [18],20
same,"Plant response rating, Ducksalad","[7]; Flood, 62 g ai/ha",0
same,"Plant response rating, Rice",[8]; [18],0
same,"Plant response rating, Rice","[8]; Flood, 62 g ai/ha",0
same,"Plant response rating, Sedge, Umbrella",[9]; [18],0
same,"Plant response rating, Sedge, Umbrella","[9]; Flood, 62 g ai/ha",0
same,Wheat plant response rating,[10]; [19],0
same,Wheat plant response rating,[10]; [20],0
same,Velvetleaf plant response rating,[11]; [19],40
same,Velvetleaf plant response rating,[11]; [20],0
same,Pigweed plant response rating,[12]; [19],100
same,Pigweed plant response rating,[12]; [20],90
Cc1nn(-c2ccc(C(F)(F)F)cc2)nc1Cn1cnc(C(F)(F)F)n1 [Compound 132],Morningglory plant response rating,[1]; [19],100
same,Morningglory plant response rating,[1]; [20],60
same,"Plant response rating, Barnyardgrass",[2]; [18],0
same,"Plant response rating, Barnyardgrass","[2]; Flood, 62 g ai/ha",0
same,"Crabgrass, Large plant response rating",[3]; [19],90
same,"Crabgrass, Large plant response rating",[3]; [20],100
same,"Foxtail, Giant plant response rating",[4]; [19],90
same,"Foxtail, Giant plant response rating",[4]; [20],100
same,Barnyardgrass plant response rating,[5]; [19],80
same,Barnyardgrass plant response rating,[5]; [20],90
same,Corn plant response rating,[6]; [19],30
same,Corn plant response rating,[6]; [20],0
same,"Plant response rating, Ducksalad",[7]; [18],20
same,"Plant response rating, Ducksalad","[7]; Flood, 62 g ai/ha",0
same,"Plant response rating, Rice",[8]; [18],0
same,"Plant response rating, Rice","[8]; Flood, 62 g ai/ha",0
same,"Plant response rating, Sedge, Umbrella",[9]; [18],65
same,"Plant response rating, Sedge, Umbrella","[9]; Flood, 62 g ai/ha",0
same,Wheat plant response rating,[10]; [19],30
same,Wheat plant response rating,[10]; [20],0
same,Velvetleaf plant response rating,[11]; [19],90
same,Velvetleaf plant response rating,[11]; [20],60
same,Pigweed plant response rating,[12]; [19],100
same,Pigweed plant response rating,[12]; [20],100
CCc1nn(-c2ccc(C(F)(F)F)cc2)nc1Cn1cnc(C(F)(F)F)c1 [Compound 133],Morningglory plant response rating,[1]; [19],90
same,"Plant response rating, Morningglory",[1]; [20],40
same,"Plant response rating, Barnyardgrass",[2]; [18],15
same,"Plant response rating, Barnyardgrass","[2]; Flood, 62 g ai/ha",0
same,"Crabgrass, Large plant response rating",[3]; [19],80
same,"Plant response rating, Crabgrass, Large",[3]; [20],90
same,"Foxtail, Giant plant response rating",[4]; [19],70
same,"Plant response rating, Foxtail, Giant",[4]; [20],90
same,Barnyardgrass plant response rating,[5]; [19],40
same,"Plant response rating, Barnyardgrass",[5]; [20],40
same,Corn plant response rating,[6]; [19],20
same,"Plant response rating, Corn",[6]; [20],10
same,"Plant response rating, Ducksalad",[7]; [18],20
same,"Plant response rating, Ducksalad","[7]; Flood, 62 g ai/ha",0
same,"Plant response rating, Rice",[8]; [18],0
same,"Plant response rating, Rice","[8]; Flood, 62 g ai/ha",0
same,"Plant response rating, Sedge, Umbrella",[9]; [18],50
same,"Plant response rating, Sedge, Umbrella","[9]; Flood, 62 g ai/ha",0
same,Wheat plant response rating,[10]; [19],30
same,"Plant response rating, Wheat",[10]; [20],0
same,Velvetleaf plant response rating,[11]; [19],90
same,"Plant response rating, Velvetleaf",[11]; [20],40
same,Pigweed plant response rating,[12]; [19],100
same,"Plant response rating, Pigweed",[12]; [20],90
